From patent publication US20240270751A1, “Pyrazolopyridinone Compounds” (BeiGene Ltd., priority 2021, published 2024)

Key:
[1] = target: DGKζ (Homo sapiens (Human), UniProt Q13574); experiment: Biochemical DGK IC50 assay, DGKζ ADP-Glo assay; details: 0.5 nM enzyme, 140 μM ATP, 80 μM DAG; read-out: DGKζ ADP-Glo assay IC50
Method in brief: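 Full-length human DGKζ, His-TEV tagged and purified from baculovirus-infected Sf9 cells, assayed by ADP-Glo with DAG/PS lipid micelle substrate prepared in 25 mM HEPES pH 7.0 with octyl glucoside. Final compound concentrations spanned 1.55–10000 nM or 23.3–150000 nM.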

[2] = target: DGKα (Homo sapiens (Human), UniProt P23743); experiment: Biochemical DGK IC50 assay, DGKα ADP-Glo assay; details: 7.5 nM enzyme, 140 μM ATP, 80 μM DAG
Sequence of DGKα (P23743 whole entry): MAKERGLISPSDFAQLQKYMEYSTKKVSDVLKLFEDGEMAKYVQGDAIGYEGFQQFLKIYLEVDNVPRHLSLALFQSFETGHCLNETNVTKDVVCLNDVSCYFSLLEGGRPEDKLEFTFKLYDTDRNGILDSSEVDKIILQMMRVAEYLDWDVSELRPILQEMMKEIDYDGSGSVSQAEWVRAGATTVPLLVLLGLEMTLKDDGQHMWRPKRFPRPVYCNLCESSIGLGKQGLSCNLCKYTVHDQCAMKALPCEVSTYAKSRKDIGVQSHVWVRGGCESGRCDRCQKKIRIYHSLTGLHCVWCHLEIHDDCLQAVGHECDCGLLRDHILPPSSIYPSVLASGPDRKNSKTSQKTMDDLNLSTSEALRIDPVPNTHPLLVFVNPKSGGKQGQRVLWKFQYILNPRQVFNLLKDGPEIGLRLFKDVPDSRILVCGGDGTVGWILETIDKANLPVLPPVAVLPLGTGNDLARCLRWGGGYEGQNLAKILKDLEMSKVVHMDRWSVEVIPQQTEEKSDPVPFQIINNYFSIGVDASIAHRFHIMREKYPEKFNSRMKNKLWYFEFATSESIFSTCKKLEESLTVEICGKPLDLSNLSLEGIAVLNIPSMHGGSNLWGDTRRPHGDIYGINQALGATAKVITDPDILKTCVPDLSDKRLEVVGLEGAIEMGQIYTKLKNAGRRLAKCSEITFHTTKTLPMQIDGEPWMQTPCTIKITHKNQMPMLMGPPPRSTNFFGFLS
Method in brief: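 ADP-Glo read-out with full-length DGKα on DAG/PS lipid micelle substrate in 25 mM HEPES pH 7.0, 0.5 mM EDTA, 160 mM octyl β-D-glucopyranoside. Compound final concentrations spanned 1.55˜10000 nM or 23.3˜150000 nM.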

Sequence of DGKζ (Q13574 other isoform, or with tags, fused parts or gaps): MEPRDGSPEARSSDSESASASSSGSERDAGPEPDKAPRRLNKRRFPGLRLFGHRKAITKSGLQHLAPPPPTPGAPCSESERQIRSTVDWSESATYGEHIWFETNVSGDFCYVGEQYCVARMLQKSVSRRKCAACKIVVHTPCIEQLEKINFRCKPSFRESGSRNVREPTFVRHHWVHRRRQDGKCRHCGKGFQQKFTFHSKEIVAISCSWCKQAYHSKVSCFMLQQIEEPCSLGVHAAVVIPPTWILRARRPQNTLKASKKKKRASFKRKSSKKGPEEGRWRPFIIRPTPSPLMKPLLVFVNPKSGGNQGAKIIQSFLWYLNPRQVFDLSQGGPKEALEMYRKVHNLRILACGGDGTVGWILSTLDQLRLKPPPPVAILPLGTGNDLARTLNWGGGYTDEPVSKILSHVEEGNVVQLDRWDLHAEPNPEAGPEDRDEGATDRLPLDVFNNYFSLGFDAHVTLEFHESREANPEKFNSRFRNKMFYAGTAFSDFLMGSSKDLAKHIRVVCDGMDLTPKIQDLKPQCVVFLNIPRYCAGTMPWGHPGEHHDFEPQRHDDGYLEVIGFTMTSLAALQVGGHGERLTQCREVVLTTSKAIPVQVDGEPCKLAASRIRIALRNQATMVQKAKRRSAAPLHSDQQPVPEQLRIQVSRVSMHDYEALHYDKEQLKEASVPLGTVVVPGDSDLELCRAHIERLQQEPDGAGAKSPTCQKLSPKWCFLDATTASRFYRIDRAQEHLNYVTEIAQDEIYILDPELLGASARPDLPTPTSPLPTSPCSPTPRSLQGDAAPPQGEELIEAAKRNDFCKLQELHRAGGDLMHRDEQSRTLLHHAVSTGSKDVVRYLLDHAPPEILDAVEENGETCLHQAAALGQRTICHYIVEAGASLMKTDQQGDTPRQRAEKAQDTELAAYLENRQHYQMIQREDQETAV

SMILES | IC50 [1] | IC50 [2]
[2H]C([2H])([2H])c1cnc2ccc(C(C)N3C[C@H](C)N(c4cc(=O)n(C)c5cn(CC#N)nc45)C[C@H]3C)cc2n1 (stereo partly drawn) [Compound A313, 2-(7-((2S,5R)-2,5-dimethyl-4-(1-(3-(methyl-d3)quinoxalin-6-yl)ethyl)piperazin-1-yl)-4-methyl-5-oxo-4,5-dihydro-2H-pyrazolo[4,3-b]pyridin-2-yl)acetonitrile] | 41 nM | 48000 nM
Cc1nc2cc(C(C)N3C[C@H](C)N(c4cc(=O)n(C)c5cn(CC#N)nc45)C[C@H]3C)ccc2s1 (some centres unmarked) [Compound A320] | 159 nM | 11600 nM
CC(c1ccc2c(c1)OC1(CC1)CO2)N1C[C@H](C)N(c2cc(=O)n(C)c3cn(CC#N)nc23)C[C@H]1C (stereo partly drawn) [Compound A323, 2-(7-((2S,5R)-4-(1-(3H-spiro[benzo[b][1,4]dioxine-2,1′-cyclopropan]-7-yl)ethyl)-2,5-dimethylpiperazin-1-yl)-4-methyl-5-oxo-4,5-dihydro-2H-pyrazolo[4,3-b]pyridin-2-yl)acetonitrile] | 7 nM | 10700 nM
CC(c1ccc2c(n1)OCCO2)N1C[C@H](C)N(c2cc(=O)n(C)c3cn(CC#N)nc23)C[C@H]1C (stereo partly drawn) [Compound A324, 2-(7-((2S,5R)-4-(1-(2,3-dihydro-[1,4]dioxino[2,3-b]pyridin-6-yl)ethyl)-2,5-dimethylpiperazin-1-yl)-4-methyl-5-oxo-4,5-dihydro-2H-pyrazolo[4,3-b]pyridin-2-yl)acetonitrile] | 4020 nM | > 150000 nM
CC[C@H]1CN(C(C)c2ccc(F)cc2C(C)OC)[C@H](CC)CN1c1cc(=O)n(C)c2cn(CC#N)nc12 (stereo partly drawn) [Compound A327, 2-(7-((2S,5R)-2,5-diethyl-4-(1-(4-fluoro-2-(1-methoxyethyl)phenyl)ethyl)piperazin-1-yl)-4-methyl-5-oxo-4,5-dihydro-2H-pyrazolo[4,3-b]pyridin-2-yl)acetonitrile] | 19 nM | > 150000 nM
CC(OC(F)F)c1cc(F)ccc1C(C)N1C[C@H](C)N(c2cc(=O)n(C)c3cn(CC#N)nc23)C[C@H]1C (stereo partly drawn) [Compound A328, 2-(7-((2S,5R)-4-(1-(2-(1-(difluoromethoxy)ethyl)-4-fluorophenyl)ethyl)-2,5-dimethylpiperazin-1-yl)-4-methyl-5-oxo-4,5-dihydro-2H-pyrazolo[4,3-b]pyridin-2-yl)acetonitrile] | 143 nM | 83000 nM
COC1(c2cc(F)ccc2C(C)N2C[C@H](C)N(c3cc(=O)n(C)c4cn(CC#N)nc34)C[C@H]2C)CC1 (stereo partly drawn) [Compound A329, 2-(7-((2S,5R)-4-(1-(4-fluoro-2-(1-methoxycyclopropyl)phenyl)ethyl)-2,5-dimethylpiperazin-1-yl)-4-methyl-5-oxo-4,5-dihydro-2H-pyrazolo[4,3-b]pyridin-2-yl)acetonitrile] | 91 nM | > 150000 nM
CC(c1ccc2c(c1)C(F)(F)CCO2)N1C[C@H](C)N(c2cc(=O)n(C)c3cn(CC#N)nc23)C[C@H]1C (stereo partly drawn) [Compound A331, 2-(7-((2S,5R)-4-(1-(4,4-difluorochroman-6-yl)ethyl)-2,5-dimethylpiperazin-1-yl)-4-methyl-5-oxo-4,5-dihydro-2H-pyrazolo[4,3-b]pyridin-2-yl)acetonitrile] | 46 nM | 31800 nM
CC#CCn1cc2c(n1)c(N1C[C@@H](C)N(C(C)c3ccc4ncc(C(F)F)nc4c3)C[C@@H]1C)cc(=O)n2C (stereo partly drawn) [Compound A335, 2-(but-2-yn-1-yl)-7-((2S,5R)-4-(1-(3-(difluoromethyl)quinoxalin-6-yl)ethyl)-2,5-dimethylpiperazin-1-yl)-4-methyl-2,4-dihydro-5H-pyrazolo[4,3-b]pyridin-5-one] | 142 nM | 610 nM
CC#CCn1cc2c(n1)c(N1C[C@@H](C)N([C@@H](C)c3ccc4ncc(C)nc4c3)C[C@@H]1C)cc(=O)n2C [Compound A336] | 60 nM | 1570 nM
CC[C@H]1CN(C(C)c2ccc(C(C)(C)C#N)cc2)[C@H](CC)CN1c1cc(=O)n(C)c2cn(CC#N)nc12 (some centres unmarked) [Compound A338] | 160 nM | 527 nM
CCC(c1ccc(C(C)(C)C#N)cc1)N1C[C@H](CC)N(c2cc(=O)n(C)c3cn(CC#N)nc23)C[C@H]1CC (stereo partly drawn) [Compound A339, 2-(4-(1-((2R,5S)-4-(2-(cyanomethyl)-4-methyl-5-oxo-4,5-dihydro-2H-pyrazolo[4,3-b]pyridin-7-yl)-2,5-diethylpiperazin-1-yl)propyl)phenyl)-2-methylpropanenitrile] | 361 nM | 5360 nM
CC[C@H]1CN(C(C)c2ccc(C)cc2F)[C@H](CC)CN1c1cc(=O)n(C)c2cn(CC#N)nc12 (some centres unmarked) [Compound A340] | 248 nM | 485 nM
CC[C@H]1CN(C(C)c2ccc(CN3CCOC(C)(C)C3)cc2)[C@H](CC)CN1c1cc(=O)n(C)c2cn(CC#N)nc12 (some centres unmarked) [Compound A342] | 353 nM | 229 nM

The next lines start with the values.

IC50 [1] | IC50 [2] | SMILES
689 nM | 84300 nM | CC(c1ccc2ncc(C(F)(F)F)nc2c1)N1C[C@H](C)N(c2cc(=O)n(C)c3cn(CC#N)nc23)C[C@H]1C (stereo partly drawn) [Compound A314, 2-(7-((2S,5R)-2,5-dimethyl-4-(1-(3-(trifluoromethyl)quinoxalin-6-yl)ethyl)piperazin-1-yl)-4-methyl-5-oxo-4,5-dihydro-2H-pyrazolo[4,3-b]pyridin-2-yl)acetonitrile]
3590 nM | 61000 nM | CC(c1ccc2nc(C(F)(F)F)cnc2c1)N1C[C@H](C)N(c2cc(=O)n(C)c3cn(CC#N)nc23)C[C@H]1C (stereo partly drawn) [Compound A315, 2-(7-((2S,5R)-2,5-dimethyl-4-(1-(2-(trifluoromethyl)quinoxalin-6-yl)ethyl)piperazin-1-yl)-4-methyl-5-oxo-4,5-dihydro-2H-pyrazolo[4,3-b]pyridin-2-yl)acetonitrile]
> 10000 nM | 67000 nM | Cc1nc2cc(C(C)N3C[C@H](C)N(c4cc(=O)n(C)c5cn(CC#N)nc45)C[C@H]3C)ccc2nc1O (stereo partly drawn) [Compound A316, 2-(7-((2S,5R)-4-(1-(2-hydroxy-3-methylquinoxalin-6-yl)ethyl)-2,5-dimethylpiperazin-1-yl)-4-methyl-5-oxo-4,5-dihydro-2H-pyrazolo[4,3-b]pyridin-2-yl)acetonitrile]
21 nM | 8650 nM | Cc1cnc2ccc([C@H](C)N3C[C@H](C)N(c4c(F)c(=O)n(C)c5cn(CC#N)nc45)C[C@H]3C)cc2n1 [Compound A317, 2-(7-((2S,5R)-2,5-dimethyl-4-((S)-1-(3-methylquinoxalin-6-yl)ethyl)piperazin-1-yl)-6-fluoro-4-methyl-5-oxo-4,5-dihydro-2H-pyrazolo[4,3-b]pyridin-2-yl)acetonitrile]
15 nM | 6490 nM | Cc1cnc2ccc([C@H](C)N3C[C@H](C)N(c4c(C#N)c(=O)n(C)c5cn(CC#N)nc45)C[C@H]3C)cc2n1 [Compound A318, 2-(cyanomethyl)-7-((2S,5R)-2,5-dimethyl-4-((S)-1-(3-methylquinoxalin-6-yl)ethyl)piperazin-1-yl)-4-methyl-5-oxo-4,5-dihydro-2H-pyrazolo[4,3-b]pyridine-6-carbonitrile]
23 nM | 49800 nM | Cc1cnc2ccc([C@H](C)N3C[C@H](C)N(c4nc(=O)n(C)c5cn(CC#N)nc45)C[C@H]3C)cc2n1 [Compound A319, 2-(7-((2S,5R)-2,5-dimethyl-4-((S)-1-(3-methylquinoxalin-6-yl)ethyl)piperazin-1-yl)-4-methyl-5-oxo-4,5-dihydro-2H-pyrazolo[4,3-d]pyrimidin-2-yl)acetonitrile]
89 nM | 103000 nM | CC(c1ccc2c(n1)OC(C)(C)CO2)N1C[C@H](C)N(c2cc(=O)n(C)c3cn(CC#N)nc23)C[C@H]1C (stereo partly drawn) [Compound A325, 2-(7-((2S,5R)-4-(1-(3,3-dimethyl-2,3-dihydro-[1,4]dioxino[2,3-b]pyridin-6-yl)ethyl)-2,5-dimethylpiperazin-1-yl)-4-methyl-5-oxo-4,5-dihydro-2H-pyrazolo[4,3-b]pyridin-2-yl)acetonitrile]
169 nM | 123 nM | CC[C@@H]1CN(c2cc(=O)n(C)c3cn(CC#N)nc23)[C@@H](C)CN1C(c1ccc(F)cc1)c1ccc(C(F)(F)F)cn1 (stereo partly drawn) [Compound A332, 2-(7-((2S,5R)-5-ethyl-4-((4-fluorophenyl)(5-(trifluoromethyl)pyridin-2-yl)methyl)-2-methylpiperazin-1-yl)-4-methyl-5-oxo-4,5-dihydro-2H-pyrazolo[4,3-b]pyridin-2-yl)acetonitrile]
210 nM | 10600 nM | Cc1ccc(C(c2ccc(C)cc2)N2C[C@H](C)N(c3cc(=O)n(C)c4cn(CC#N)nc34)C[C@H]2C)cc1 [Compound A333]
283 nM | 203 nM | CC[C@H]1CN(C(C)c2ccc3c(n2)OCC3)[C@H](CC)CN1c1cc(=O)n(C)c2cn(CC#N)nc12 (stereo partly drawn) [Compound A337, 2-(7-((2S,5R)-4-(1-(2,3-dihydrofuro[2,3-b]pyridin-6-yl)ethyl)-2,5-diethylpiperazin-1-yl)-4-methyl-5-oxo-4,5-dihydro-2H-pyrazolo[4,3-b]pyridin-2-yl)acetonitrile]
4250 nM | 1620 nM | CC(c1ccc(CN2CCOC(C)(C)C2)cc1)N1C[C@H](C)N(c2cc(=O)n(C)c3cn(CC#N)nc23)C[C@H]1C (stereo partly drawn) [Compound A341, 2-(7-((2S,5R)-4-(1-(4-((2,2-dimethylmorpholino)methyl)phenyl)ethyl)-2,5-dimethylpiperazin-1-yl)-4-methyl-5-oxo-4,5-dihydro-2H-pyrazolo[4,3-b]pyridin-2-yl)acetonitrile]
